Results reported in the supplement of paper PMC10307832.

What follows are cell lines tested with Cc1cnc(Nc2ccc(OCCN3CCCC3)cc2)nc1Nc1cccc(S(=O)(=O)NC(C)(C)C)c1 [Fedratinib] + CC(=O)c1c(C)c2cnc(Nc3ccc(N4CCNCC4)cn3)nc2n(C2CCCC2)c1=O [Palbociclib] (partner 0.5 µM) (assay: relative viability (nuclei count vs DMSO), 5 days (fraction); higher = more cells survive). Settings: first compound 0.1 µM.
How it was run: (§1)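 After 5 days of treatment, lung cancer cells in 1536-well plates were fixed and stained in a single step (final 0.05% Triton X-100, 1% formaldehyde, 1 ug/ml Hoechst) and their nuclei counted on 4× images. Treatment had been applied by pin tool the day after seeding as one drug alone or as a fixed anchor-drug dose with five library-drug doses (not always all listed) in √10 steps. Relative viability is the nuclei count of treated wells divided by that of vehicle wells, and values are medians of duplicate plates.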

Row | Cell Line | relative viability
1 | A-427 | 0.505
2 | NCI-H441 | 0.195
3 | NCI-H661 | 0.397
4 | NCI-H1734 | 0.415
5 | NCI-H460 | 0.163
6 | NCI-H2347 | 0.37
7 | SK-LU-1 | 0.393
8 | 201T | 0.362
9 | NCI-H1915 | 0.505
10 | HCC-827 | 0.454
11 | LXF-289 | 0.611
12 | NCI-H23 | 0.555
13 | NCI-H647 | 0.346
14 | CAL-12T | 0.295
15 | NCI-H1651 | 0.49
16 | EPLC-272H | 0.318
17 | NCI-H2228 | 0.648

Row | Cell Line | relative viability
18 | NCI-H1792 | 0.684
19 | NCI-H1355 | 0.412
20 | NCI-H3122 | 0.199
21 | NCI-H1437 | 0.264
22 | NCI-H1755 | 0.438
23 | NCI-H2023 | 0.391
24 | HCC-15 | 0.664
25 | PC-14 | 0.592
26 | EKVX | 0.391
27 | LC-2-ad | 0.535
28 | NCI-H1944 | 0.305
29 | NCI-H1975 | 0.644
30 | RERF-LC-KJ | 1.01
31 | NCI-H358 | 0.131
32 | NCI-H650 | 0.285
33 | PC-3 [JPC-3] | 0.481

Same assay, conditions: first compound 0.3162 µM

Row | Cell Line | relative viability
34 | A-427 | 0.492
35 | NCI-H441 | 0.176
36 | NCI-H661 | 0.401
37 | NCI-H1734 | 0.344
38 | NCI-H460 | 0.142
39 | NCI-H2347 | 0.426
40 | SK-LU-1 | 0.317
41 | 201T | 0.342
42 | NCI-H1915 | 0.498
43 | HCC-827 | 0.485
44 | LXF-289 | 0.559
45 | NCI-H23 | 0.497
46 | NCI-H647 | 0.362
47 | CAL-12T | 0.411
48 | NCI-H1651 | 0.485
49 | EPLC-272H | 0.339
50 | NCI-H2228 | 0.53

Row | Cell Line | relative viability
51 | NCI-H1792 | 0.622
52 | NCI-H1355 | 0.396
53 | NCI-H3122 | 0.184
54 | NCI-H1437 | 0.308
55 | NCI-H1755 | 0.462
56 | NCI-H2023 | 0.356
57 | HCC-15 | 0.708
58 | PC-14 | 0.58
59 | EKVX | 0.403
60 | LC-2-ad | 0.486
61 | NCI-H1944 | 0.358
62 | NCI-H1975 | 0.304
63 | RERF-LC-KJ | 1.05
64 | NCI-H358 | 0.0975
65 | NCI-H650 | 0.345
66 | PC-3 [JPC-3] | 0.523

Same assay, conditions: first compound 1 µM

Row | Cell Line | relative viability
67 | A-427 | 0.487
68 | NCI-H441 | 0.204
69 | NCI-H661 | 0.359
70 | NCI-H1734 | 0.334
71 | NCI-H460 | 0.06
72 | NCI-H2347 | 0.391
73 | SK-LU-1 | 0.34
74 | 201T | 0.33
75 | NCI-H1915 | 0.422
76 | HCC-827 | 0.475
77 | LXF-289 | 0.558
78 | NCI-H23 | 0.4
79 | NCI-H647 | 0.364
80 | CAL-12T | 0.446
81 | NCI-H1651 | 0.508
82 | EPLC-272H | 0.365
83 | NCI-H2228 | 0.523

Row | Cell Line | relative viability
84 | NCI-H1792 | 0.611
85 | NCI-H1355 | 0.385
86 | NCI-H3122 | 0.159
87 | NCI-H1437 | 0.293
88 | NCI-H1755 | 0.413
89 | NCI-H2023 | 0.248
90 | HCC-15 | 0.636
91 | PC-14 | 0.402
92 | EKVX | 0.414
93 | LC-2-ad | 0.476
94 | NCI-H1944 | 0.318
95 | NCI-H1975 | 0.413
96 | RERF-LC-KJ | 1.02
97 | NCI-H358 | 0.107
98 | NCI-H650 | 0.324
99 | PC-3 [JPC-3] | 0.542

These cell lines were tested with Cc1cnc(Nc2ccc(OCCN3CCCC3)cc2)nc1Nc1cccc(S(=O)(=O)NC(C)(C)C)c1 [Fedratinib] + O=C(c1cc(Cc2n[nH]c(=O)c3ccccc23)ccc1F)N1CCN(C(=O)C2CC2)CC1 [Olaparib] (partner 8 µM) in the same assay as above. Settings: first compound 0.1 µM.
How it was run: as §1

Row | Cell Line | relative viability
100 | A-427 | 0.648
101 | NCI-H441 | 0.607
102 | NCI-H661 | 0.713
103 | NCI-H1734 | 0.683
104 | NCI-H460 | 0.483
105 | NCI-H2347 | 0.551
106 | SK-LU-1 | 0.407
107 | 201T | 0.846
108 | NCI-H1915 | 0.262
109 | HCC-827 | 0.606
110 | LXF-289 | 1.11
111 | NCI-H23 | 0.286
112 | NCI-H647 | 0.697
113 | CAL-12T | 0.654
114 | NCI-H1651 | 0.173
115 | EPLC-272H | 0.601
116 | NCI-H2228 | 0.648

Row | Cell Line | relative viability
117 | NCI-H1792 | 0.599
118 | NCI-H1355 | 0.771
119 | NCI-H3122 | 0.739
120 | NCI-H1437 | 0.627
121 | NCI-H1755 | 0.898
122 | NCI-H2023 | 0.533
123 | HCC-15 | 0.732
124 | PC-14 | 0.371
125 | EKVX | 0.969
126 | LC-2-ad | 0.709
127 | NCI-H1944 | 0.407
128 | NCI-H1975 | 0.814
129 | RERF-LC-KJ | 0.895
130 | NCI-H358 | 0.62
131 | NCI-H650 | 0.367
132 | PC-3 [JPC-3] | 1.01

Same assay, conditions: first compound 0.3162 µM

Row | Cell Line | relative viability
133 | A-427 | 0.708
134 | NCI-H441 | 0.481
135 | NCI-H661 | 0.77
136 | NCI-H1734 | 0.618
137 | NCI-H460 | 0.395
138 | NCI-H2347 | 0.58
139 | SK-LU-1 | 0.361
140 | 201T | 0.867
141 | NCI-H1915 | 0.227
142 | HCC-827 | 0.528
143 | LXF-289 | 1.01
144 | NCI-H23 | 0.3
145 | NCI-H647 | 0.467
146 | CAL-12T | 0.737
147 | NCI-H1651 | 0.169
148 | EPLC-272H | 0.847
149 | NCI-H2228 | 0.631

Row | Cell Line | relative viability
150 | NCI-H1792 | 0.402
151 | NCI-H1355 | 0.817
152 | NCI-H3122 | 0.632
153 | NCI-H1437 | 0.645
154 | NCI-H1755 | 0.861
155 | NCI-H2023 | 0.488
156 | HCC-15 | 0.676
157 | PC-14 | 0.324
158 | EKVX | 0.811
159 | LC-2-ad | 0.701
160 | NCI-H1944 | 0.383
161 | NCI-H1975 | 0.841
162 | RERF-LC-KJ | 0.847
163 | NCI-H358 | 0.536
164 | NCI-H650 | 0.372
165 | PC-3 [JPC-3] | 1.09

Same assay, conditions: first compound 1 µM

Row | Cell Line | relative viability
166 | A-427 | 0.716
167 | NCI-H441 | 0.525
168 | NCI-H661 | 0.748
169 | NCI-H1734 | 0.505
170 | NCI-H460 | 0.415
171 | NCI-H2347 | 0.596
172 | SK-LU-1 | 0.341
173 | 201T | 0.794
174 | NCI-H1915 | 0.222
175 | HCC-827 | 0.749
176 | LXF-289 | 0.994
177 | NCI-H23 | 0.289
178 | NCI-H647 | 0.373
179 | CAL-12T | 0.764
180 | NCI-H1651 | 0.169
181 | EPLC-272H | 0.459
182 | NCI-H2228 | 0.495

Row | Cell Line | relative viability
183 | NCI-H1792 | 0.282
184 | NCI-H1355 | 0.699
185 | NCI-H3122 | 0.608
186 | NCI-H1437 | 0.598
187 | NCI-H1755 | 0.855
188 | NCI-H2023 | 0.44
189 | HCC-15 | 0.806
190 | PC-14 | 0.309
191 | EKVX | 0.853
192 | LC-2-ad | 0.724
193 | NCI-H1944 | 0.408
194 | NCI-H1975 | 0.613
195 | RERF-LC-KJ | 0.805
196 | NCI-H358 | 0.44
197 | NCI-H650 | 0.379
198 | PC-3 [JPC-3] | 1.01

The cell lines below were run with Cc1cnc(Nc2ccc(OCCN3CCCC3)cc2)nc1Nc1cccc(S(=O)(=O)NC(C)(C)C)c1 [Fedratinib] + C[C@@H](Oc1cc(-c2cnn(C3CCNCC3)c2)cnc1N)c1c(Cl)ccc(F)c1Cl [Crizotinib] (partner 1 µM) in the same assay as above. Settings: first compound 0.1 µM.
How it was run: as §1

Row | Cell Line | relative viability
199 | A-427 | 0.802
200 | NCI-H441 | 0.65
201 | NCI-H661 | 0.964
202 | NCI-H1734 | 0.629
203 | NCI-H460 | 0.47
204 | NCI-H2347 | 0.721
205 | 201T | 1.01
206 | NCI-H1915 | 0.942
207 | HCC-827 | 0.985
208 | LXF-289 | 0.81
209 | NCI-H23 | 0.305
210 | NCI-H647 | 1.06
211 | CAL-12T | 0.262
212 | NCI-H1651 | 0.931
213 | EPLC-272H | 1
